Experiments:
T. cruzi [1] = experiment: T. cruzi epimastigote (EPI) in-vitro screen; format: cell-based
Description: (§5) In-vitro chemotherapy screens have for many years used models involving three stages of the T. cruzi life cycle: • (1) Epimastigote. Dividing populations are easily cultivated in a range of defined and semi-defined media, but are equivalent to a vector stage of the life cycle. • (2) Trypomastigote. These are isolated from a rodent host and can be maintained as a non-dividing population for 24-48 h in media. • (3) Amastigote. Dividing populations can be cultivated in muscle cells, fibroblasts and macrophages, following infection with trypomastigotes. After the initial infection, there is normally a period of 4-5 days during which the amastigotes divide before transforming, via the epimastigote stage, back to trypomastigotes which escape from the cell. Drug activity is measured during this 4-5 day period. A dividing host cell population, low infection rate, and the presence of trypomastigotes in the overlay can complicate the interpretation of results.

T. cruzi [2] = experiment: T. cruzi trypomastigote (TRY) in-vitro screen; format: cell-based
Description: as §5

T. cruzi [3] = experiment: T. cruzi intracellular amastigote (AM) in-vitro screen; format: cell-based
Description: Dividing populations can be cultivated in muscle cells, fibroblasts and macrophages, following infection with trypomastigotes. After the initial infection, there is normally a period of 4-5 days during which the amastigotes divide before transforming, via the epimastigote stage, back to trypomastigotes which escape from the cell. Drug activity is measured during this 4-5 day period. A dividing host cell population, low infection rate, and the presence of trypomastigotes in the overlay can complicate the interpretation of results.
Intracellular amastigote models can use a range of muscle (skeletal and cardiac) and fibroblast (e.g. HeLa, HePa) cell lines, macrophages, and chick embryo cells. […] To overcome the problems of overgrowth of the monolayer and a low percentage of infected cells, often associated with the use of cell lines, irradiated rat L6 myoblasts are used.

T. cruzi [4] = experiment: T. cruzi mouse model, in-vivo
Source text: (§1) In-vitro and in-vivo models were used to test activities of a selection of many compounds. Those activities are summarized in Tables 1-3, showing variation between systems and species. Activities measured in the MP mo and HM mo models have shown the best correlation with results obtained in hamster and mouse models.

L donovani [5] = experiment: Leishmania promastigote (PRO) in-vitro screen; format: cell-based; details: Ld.
Source text: (§2) Following initial infection, the amastigote is the only form present in the mammalian host, surviving and dividing in various macrophage populations. Differences between the promastigote and amastigote in form and habitat are not matched by known biochemical dissimilarities. However, the drug susceptibility of the cultured promastigote, used in many early chemotherapy screens, contrasts markedly with that of the amastigote (see Table 1, below), most importantly to the clinically used pentavalent antimonials - sodium stibogluconate (Pentostam) and meglumine antimoniate (Glucantime).
(§3) Amastigotes of Leishmania can be cultivated in a wide range of mammalian cells, some of which may be used in in-vitro screens. These include (1) a Sticker dog sarcoma (fibroblast) cell line, (2) transformed rodent macrophage cell lines, (3) primary isolated mouse peritoneal macrophages (MP mo), and (4) human monocyte-derived macrophages (HM mo). The methods are similar for all models. Amastigote or promastigote infected cells are maintained in a medium containing the drug for 4-7 days, at 37 C for L. donovani and 33-35 C for L. major and L. mexicana. Drug activity is then assessed by counting (I) the number of infected host cells and/or (II) the number of amastigotes/100 host cells.
as §1

L major/L mexicana [6] = experiment: Leishmania promastigote (PRO) in-vitro screen; format: cell-based; details: Lm.
Source text: as §2, §3, §1

L donovani [7] = experiment: Amastigote-promastigote (AM-PRO) transformation, in-vitro; format: cell-based; details: Ld.
L donovani [8] = experiment: Amastigotes (AM) in cell lines, in-vitro; format: cell-based; details: Ld., Amastigote; note: key: - no/poor activity,; + fair/moderate activity,; ++ good/excellent activity
Source text: as §3, §1

L major/L mexicana [9] = experiment: Amastigotes (AM) in cell lines, in-vitro; format: cell-based; details: Lm., Amastigote; note: key: - no/poor activity,; + fair/moderate activity,; ++ good/excellent activity
Source text: as §3, §1

L donovani [10] = experiment: Amastigotes (AM) in mouse or human macrophages (mos), in-vitro; format: cell-based; details: Ld., Amastigote
Source text: as §3, §1

L major/L mexicana [11] = experiment: as above; format: cell-based; details: Lm., Amastigote
Source text: as §3, §1

L donovani [12] = experiment: Leishmania mouse/hamster models, in-vivo; details: Ld. Note: key: - no/poor activity,; + fair/moderate activity,; ++ good/excellent activity.
Source text: as §1

L major/L mexicana [13] = experiment: Leishmania mouse/hamster models, in-vivo; details: Lm. Note: key: - no/poor activity,; + fair/moderate activity,; ++ good/excellent activity.
Source text: as §1

L major/L mexicana [14] = experiment: Amastigote-promastigote (AM-PRO) transformation, in-vitro; format: cell-based; details: Lm.
[15] = tested on: T.b. brucei, T.b. gambiense and T.b. rhodesiense; experiment: Isolated bloodstream trypomastigote (TRY) in-vitro screen; format: cell-based
Description: (§4) Primary screening for new trypanocides has made extensive use of rodent systems, in which host survival time is a simple indicator of drug activity. In-vitro screens have used a variety of trypomastigote types (see Table 3, below). […] Most early in-vitro screens employed a short test in which bloodstream trypomastigotes were isolated from an infected rodent and maintained for up to 24 h in a simple drug-containing media. Two significant modifications of this technique include maintaining isolated bloodstream trypomastigotes in drug-containing media for 3-4 hours at 37° C in micro-titre plates and their subsequent viability assessed by the uptake of radiolabelled precursors or motility and infectivity to mice.
In-vitro studies on isolated bloodstream trypomastigotes were also used in the rational biochemical approaches towards the chemotherapy of T. brucei infections involving inhibitors of carbohydrate catabolism salicyl hydroxamic acid plus glycerol), of polyamine synthesis (methylgyoxal bis-guanylhydrazone and - DFMO), and of surface coat glycoprotein synthesis (Tunicamycin). In these studies, activity of the compounds are shown in-vitro and in-vivo, whereas the sensitivity of isolated bloodstream trypomastigotes to toxic oxygen radicals generated by naphthoquinones was not shown by the parasites in mice. The activity of the standard anti-trypanosomals-melarsoprol, pentamidine and suramin and tested compounds according to the present invention in in-vitro systems is shown in Table 3.
as §1

[16] = tested on: T.b. brucei, T.b. gambiense and T.b. rhodesiense; experiment: Cultivated bloodstream trypomastigote (TRY) in-vitro screen; format: cell-based
Source text: Culture systems developed in the last decade have used mammalian cell feeder layers to support the growth of dividing populations of bloodstream trypomastigotes of T. brucei spp. Some of these systems have been used in chemotherapy studies, including; (1) bovine fibroblast culture - T. brucei models to test some standard and experimental compounds, (2) murine bone marrow culture - T.b. gambiense model to screen inosine analogues and platinum and hypolipidemic compounds, and (3) Microtus embryonic fibroblast culture (MEF) - T.b. rhodesiense model to test standard and experimental drugs. These systems give a good indication of in-vivo activity (see Table 3). They measure activity against dividing cells rather than specific macromolecular synthesis pathways and can be readily established in micro-titre plates. The MEF and bone marrow cell feeder layers can be used to grow a range of strains of T. brucei spp., offering the possibility of examining variations in drug susceptibility and resistance between strains. The presence of a feeder layer, however, limits the opportunities for the automation of these systems.
as §1

[17] = tested on: T.b. brucei, T.b. gambiense and T.b. rhodesiense; experiment: African trypanosomiasis mouse model, in-vivo
Description: as §4, §1

O=C(Cn1ccnc1[N+](=O)[O-])NCc1ccccc1 [Benznidazole, benznidazole, reference compound]
++: activity, mouse model (T. cruzi [4]; T. cruzi strain Y)
++(Y,MR, Sonya): activity, EPI (T. cruzi [1]; T. cruzi strain MR) | activity, EPI (T. cruzi [1]; T. cruzi strain Sonya) | activity, EPI (T. cruzi [1]; T. cruzi strain Y)
++(Y,Sonya): activity, TRY (T. cruzi [2]; T. cruzi strain Sonya) | activity, TRY (T. cruzi [2]; T. cruzi strain Y) | activity, intracellular AM (T. cruzi [3]; T. cruzi strain Sonya) | activity, intracellular AM (T. cruzi [3]; T. cruzi strain Y)
+: activity, mouse model (T. cruzi [4]; T. cruzi strain Sonya)

N=C(N)c1ccc(OCCCCCOc2ccc(C(=N)N)cc2)cc1 [Pentamidine, pentamidine, reference compound]
-: Activity, AM in cell lines (L donovani [8]) | Activity, mouse/ hamster models (L major/L mexicana [13])
+: Activity, AM in cell lines (L major/L mexicana [9]) | Activity, AM in mouse or human mos (L donovani [10]) | Activity, mouse/ hamster models (L donovani [12])
+ +: Activity, PRO (L donovani [5]) | Activity, PRO (L major/L mexicana [6]) | Activity, AM-PRO transform-ation (L donovani [7]) | Activity, AM in mouse or human mos (L major/L mexicana [11]) | Activity, AM-PRO transform-ation (L major/L mexicana [14]) | activity, isolated bloodstream TRY [15] | activity, cultivated bloodstream TRY [16] | activity, mouse model [17]

Nc1nc(N)nc(Nc2ccc([As]3SCC(CO)S3)cc2)n1 (stereo not shown) [Melarsoprol, melarsoprol, reference compound]
+ +: activity, isolated bloodstream TRY [15] | activity, cultivated bloodstream TRY [16] | activity, mouse model [17]
